According to ChEMBL document CHEMBL4393657, “Tetrazole hybrids and their antifungal activities” (2019):
In brackets after ≈: the same amount, converted by molar mass.

Experiments:
Format in all cases: functional
Candida albicans [1] = experiment: Antifungal activity against Candida albicans assessed as reduction in fungal cell growth incubated for 48 hrs by broth microdilution method
Aspergillus niger [2] = experiment: Antifungal activity against Aspergillus niger assessed as reduction in fungal cell growth incubated for 48 hrs by broth microdilution method
Candida albicans [3] = experiment: Antifungal activity against Candida albicans MTCC 227 assessed as reduction in fungal cell growth incubated for 24 hrs by broth microdilution method; conditions: MTCC 227, 24 h
Nakaseomyces glabratus [4] = experiment: Antifungal activity against Candida glabrata NCIM 3236 assessed as reduction in fungal cell growth incubated for 24 hrs by broth microdilution method; conditions: NCIM 3236, 24 h
Candida tropicalis [5] = experiment: Antifungal activity against Candida tropicalis NCIM 3110 assessed as reduction in fungal cell growth incubated for 48 hrs by broth microdilution method; conditions: NCIM 3110, 48 h
Nakaseomyces glabratus [6] = experiment: Potency index, ratio for MIC of fluconazole to MIC of compound for antifungal activity against Candida glabrata NCIM 3236 assessed as reduction in fungal cell growth incubated for 24 hrs by broth microdilution method
Candida tropicalis [7] = experiment: Potency index, ratio for MIC of fluconazole to MIC of compound for Antifungal activity against Candida tropicalis NCIM 3110 assessed as reduction in fungal cell growth incubated for 24 hrs by broth microdilution method
Aspergillus flavus [8] = experiment: Antifungal activity against Aspergillus flavus
Candida albicans [9] = experiment: Antifungal activity against Candida albicans
Aspergillus niger [10] = experiment: Antifungal activity against Aspergillus niger
Mucor indicus = experiment: Antifungal activity against Mucor indicus
Rhizopus arrhizus = experiment: Antifungal activity against Rhizopus arrhizus
Candida albicans [11] = experiment: Antifungal activity against Candida albicans assessed as reduction in fungal cell growth incubated for 24 hrs by broth microdilution method
Candida albicans [12] = experiment: Antifungal activity against Candida albicans ATCC 885653 assessed as inhibition zone at 100 ug/ml incubated for 48 to 72 hrs by agar-diffusion method; conditions: read-out: IZ
Aspergillus flavus [13] = experiment: Antifungal activity against Aspergillus flavus NCIM 524 assessed as reduction in fungal cell growth incubated for 3 to 4 days by disk diffusion method
Aspergillus fumigatus [14] = experiment: Antifungal activity against Aspergillus fumigatus NCIM 902 assessed as reduction in fungal cell growth incubated for 3 to 4 days by disk diffusion method
Talaromyces marneffei = experiment: Antifungal activity against Penicillium marneffei assessed as reduction in fungal cell growth incubated for 3 to 4 days by disk diffusion method
[15] = system: Trichophyton mentagrophytes; experiment: Antifungal activity against Trichophyton mentagrophytes assessed as reduction in fungal cell growth incubated for 3 to 4 days by disk diffusion method
Candida albicans [16] = experiment: Antifungal activity against Candida albicans NCCS 3471 assessed as inhibition zone at 500 ug/ml by disk diffusion method; conditions: read-out: IZ
Aspergillus niger [17] = experiment: Antifungal activity against Aspergillus niger NCCS 1196 assessed as inhibition zone at 500 ug/ml by disk diffusion method; conditions: read-out: IZ
Aspergillus flavus [18] = experiment: Antifungal activity against Aspergillus flavus assessed as inhibition zone at 25 ug/ml by disk diffusion method; conditions: read-out: IZ
Aspergillus fumigatus [19] = experiment: Antifungal activity against Aspergillus fumigatus assessed as inhibition zone at 25 ug/ml by disk diffusion method; conditions: read-out: IZ
Aspergillus niger [20] = experiment: Antifungal activity against Aspergillus niger assessed as inhibition zone at 25 ug/ml by disk diffusion method; conditions: read-out: IZ
Candida albicans [21] = experiment: Antifungal activity against Candida albicans assessed as inhibition zone at 25 ug/ml by disk diffusion method; conditions: read-out: IZ
Candida albicans [22] = experiment: Antifungal activity against Candida albicans assessed as inhibition zone at 125 ug/ml by disk diffusion method; conditions: read-out: IZ

Compound: Cc1ccc(C2c3ccc4ccccc4c3Oc3[nH]c(=S)n4nnnc4c32)cc1 (stereo not given)
- MIC (Candida albicans [1]): 50 to 400 µg/mL (≈ 126 to 1010 µM)
- MIC (Aspergillus niger [2]): 50 to 400 µg/mL (≈ 126 to 1010 µM)

Compound: O=c1c(OCc2nnn[nH]2)c(-c2ccc(F)cc2)oc2ccc(Cl)cc12
- MIC (Candida albicans [3]): 12.5 to 25 µg/mL (≈ 33.5 to 67.1 µM)
- MIC (Nakaseomyces glabratus [4]): 12.5 to 50 µg/mL (≈ 33.5 to 134 µM)
- MIC (Candida tropicalis [5]): 12.5 to 50 µg/mL (≈ 33.5 to 134 µM)
- Ratio (Nakaseomyces glabratus [6]): 16 - 64
- Ratio (Candida tropicalis [7]): 16 - 64

Compound: COc1ccc(-n2nnnc2C(=O)CN2CCN(c3nc4c(cc3F)c(=O)c(C(=O)O)cn4C3CC3)CC2)cc1
- MIC (Aspergillus flavus [8]): 6.25 to 100 µg/mL (≈ 11.4 to 182 µM)
- MIC (Candida albicans [9]): 6.25 to 100 µg/mL (≈ 11.4 to 182 µM)
- MIC (Aspergillus niger [10]): 6.25 to 100 µg/mL (≈ 11.4 to 182 µM)
- MIC (Mucor indicus): 6.25 to 100 µg/mL (≈ 11.4 to 182 µM)
- MIC (Rhizopus arrhizus): 6.25 to 100 µg/mL (≈ 11.4 to 182 µM)

Compound: O=c1c(OCc2nnn[nH]2)c(-c2ccc(F)cc2)oc2ccccc12
- MIC (Candida albicans [3]): 12.5 to 25 µg/mL (≈ 36.9 to 73.9 µM)
- MIC (Nakaseomyces glabratus [4]): 12.5 to 50 µg/mL (≈ 36.9 to 148 µM)
- MIC (Candida tropicalis [5]): 12.5 to 50 µg/mL (≈ 36.9 to 148 µM)
- Ratio (Nakaseomyces glabratus [6]): 16 - 64
- Ratio (Candida tropicalis [7]): 16 - 64

Compound: Cc1ccc(-n2nnnc2C(=O)CN2CCN(c3nc4c(cc3F)c(=O)c(C(=O)O)cn4C3CC3)CC2)cc1
- MIC (Aspergillus flavus [8]): 6.25 to 100 µg/mL (≈ 11.7 to 188 µM)
- MIC (Candida albicans [9]): 6.25 to 100 µg/mL (≈ 11.7 to 188 µM)
- MIC (Aspergillus niger [10]): 6.25 to 100 µg/mL (≈ 11.7 to 188 µM)
- MIC (Mucor indicus): 6.25 to 100 µg/mL (≈ 11.7 to 188 µM)
- MIC (Rhizopus arrhizus): 6.25 to 100 µg/mL (≈ 11.7 to 188 µM)

Compound: FC(F)(F)c1cc(-c2ccc(Br)cc2)nc2nnnn12
- MIC (Candida albicans [11]): 62.5 µg/mL (≈ 182 µM)

Compound: O=C(O)c1cn(C2CC2)c2nc(N3CCN(CC(=O)c4nnnn4-c4ccc(Cl)cc4)CC3)c(F)cc2c1=O
- MIC (Aspergillus flavus [8]): 6.25 to 100 µg/mL (≈ 11.3 to 181 µM)
- MIC (Candida albicans [9]): 6.25 to 100 µg/mL (≈ 11.3 to 181 µM)
- MIC (Aspergillus niger [10]): 6.25 to 100 µg/mL (≈ 11.3 to 181 µM)
- MIC (Mucor indicus): 6.25 to 100 µg/mL (≈ 11.3 to 181 µM)
- MIC (Rhizopus arrhizus): 6.25 to 100 µg/mL (≈ 11.3 to 181 µM)

Compound: Cc1ccc2oc(-c3ccc(F)cc3)c(OCc3nnn[nH]3)c(=O)c2c1
- MIC (Candida albicans [3]): 12.5 to 50 µg/mL (≈ 35.5 to 142 µM)
- MIC (Nakaseomyces glabratus [4]): 12.5 to 50 µg/mL (≈ 35.5 to 142 µM)
- MIC (Candida tropicalis [5]): 12.5 to 50 µg/mL (≈ 35.5 to 142 µM)
- Ratio (Nakaseomyces glabratus [6]): 8 - 64
- Ratio (Candida tropicalis [7]): 8 - 64

Compound: CC(C)NCCSc1nc2ccccc2c2nnnn12
- zone of inhibition at 100 µg/mL (Candida albicans [12]): 6 to 22 mm

Compound: c1ccc(Cn2nnnc2SCCCSc2nnnn2-c2ccccc2)cc1
- MIC (Aspergillus flavus [13]): 6.25 µg/mL (≈ 15.2 µM)
- MIC (Aspergillus fumigatus [14]): 6.25 µg/mL (≈ 15.2 µM)
- MIC (Talaromyces marneffei): 6.25 µg/mL (≈ 15.2 µM)
- MIC [15]: 6.25 µg/mL (≈ 15.2 µM)

Compound: CC(=O)N1N=C(Cn2cc(-c3nn(-c4ccncc4)cc3-c3nnnn3-c3ccc(C(F)(F)F)cc3)c3cc(Cl)ccc32)OC1(C)c1ccc(C(F)(F)F)cc1 (stereo not given)
- zone of inhibition at 500 µg/mL (Candida albicans [16]): 11 to 20 mm
- zone of inhibition at 500 µg/mL (Aspergillus niger [17]): 11 to 20 mm

Compound: c1ccc(OCc2cn(Cc3ccc(-c4ccccc4-c4nnn[nH]4)cc3)nn2)cc1
- zone of inhibition at 25 µg/mL (Aspergillus flavus [18]): 11 to 18 mm
- zone of inhibition at 25 µg/mL (Aspergillus fumigatus [19]): 11 to 18 mm
- zone of inhibition at 25 µg/mL (Aspergillus niger [20]): 11 to 18 mm
- zone of inhibition at 25 µg/mL (Candida albicans [21]): 11 to 18 mm

Compound: CC(=O)N1N=C(Cn2cc(-c3nn(-c4ccncc4)cc3-c3nnnn3-c3ccc(C(F)(F)F)cc3)c3cc(Cl)ccc32)OC1(C)c1ccc(Cl)cc1 (stereo not given)
- zone of inhibition at 500 µg/mL (Candida albicans [16]): 11 to 20 mm
- zone of inhibition at 500 µg/mL (Aspergillus niger [17]): 11 to 20 mm

Compound: CNCCSc1nc2ccccc2c2nnnn12
- zone of inhibition at 100 µg/mL (Candida albicans [12]): 6 to 22 mm

Compound: COc1ccc(OC)c(C(=O)CSc2nc3ccccc3c3nnnn23)c1
- zone of inhibition at 100 µg/mL (Candida albicans [12]): 22 mm

Compound: O=C(O)c1cn(C2CC2)c2nc(N3CCN(CC(=O)c4nnnn4-c4ccccc4)CC3)c(F)cc2c1=O
- MIC (Aspergillus flavus [8]): 6.25 to 100 µg/mL (≈ 12.1 to 193 µM)
- MIC (Candida albicans [9]): 6.25 to 100 µg/mL (≈ 12.1 to 193 µM)
- MIC (Aspergillus niger [10]): 6.25 to 100 µg/mL (≈ 12.1 to 193 µM)
- MIC (Mucor indicus): 6.25 to 100 µg/mL (≈ 12.1 to 193 µM)
- MIC (Rhizopus arrhizus): 6.25 to 100 µg/mL (≈ 12.1 to 193 µM)

Compound: S=c1[nH]c2c(c3nnnn13)C(c1ccccc1)c1ccc3ccccc3c1O2 (stereo not given)
- MIC (Candida albicans [1]): 50 to 400 µg/mL (≈ 130 to 1040 µM)
- MIC (Aspergillus niger [2]): 50 to 400 µg/mL (≈ 130 to 1040 µM)

Compound: Clc1ccc(/N=C/c2cc3cc(-c4nc5ccccc5[nH]4)ccc3n3nnnc23)cc1
- zone of inhibition at 125 µg/mL (Candida albicans [22]): 7 to 12 mm

Compound: O=C(CSc1nc2ccccc2c2nnnn12)c1ccccc1
- zone of inhibition at 100 µg/mL (Candida albicans [12]): 6 to 22 mm

Compound: Cc1cccc(OCc2cn(Cc3ccc(-c4ccccc4-c4nnn[nH]4)cc3)nn2)c1
- zone of inhibition at 25 µg/mL (Aspergillus flavus [18]): 11 to 18 mm
- zone of inhibition at 25 µg/mL (Aspergillus fumigatus [19]): 11 to 18 mm
- zone of inhibition at 25 µg/mL (Aspergillus niger [20]): 11 to 18 mm
- zone of inhibition at 25 µg/mL (Candida albicans [21]): 11 to 18 mm

Compound: Cc1cc2oc(-c3ccc(F)cc3)c(OCc3nnn[nH]3)c(=O)c2cc1Cl
- MIC (Candida albicans [3]): 12.5 to 25 µg/mL (≈ 32.3 to 64.6 µM)
- MIC (Nakaseomyces glabratus [4]): 12.5 to 50 µg/mL (≈ 32.3 to 129 µM)
- MIC (Candida tropicalis [5]): 12.5 to 50 µg/mL (≈ 32.3 to 129 µM)
- Ratio (Nakaseomyces glabratus [6]): 16 - 64
- Ratio (Candida tropicalis [7]): 16 - 64

Compound: COc1ccc(/N=C/c2cc3cc(-c4nc5ccccc5[nH]4)ccc3n3nnnc23)cc1
- zone of inhibition at 125 µg/mL (Candida albicans [22]): 7 to 12 mm

Compound: NCCSc1nc2ccccc2c2nnnn12
- zone of inhibition at 100 µg/mL (Candida albicans [12]): 6 to 22 mm

Compound: CC(=O)N1N=C(Cn2cc(-c3nn(-c4ccncc4)cc3-c3nnnn3-c3ccc(C(F)(F)F)cc3)c3cc(Cl)ccc32)OC1(C)c1ccccc1 (stereo not given)
- zone of inhibition at 500 µg/mL (Candida albicans [16]): 11 to 20 mm
- zone of inhibition at 500 µg/mL (Aspergillus niger [17]): 11 to 20 mm
